Results reported in paper PMC12563652 (International Journal of Molecular Sciences, 2025).
Where two headings read alike, the source gives them in different places.

How the values were obtained:
α2A-adrenoceptor = target: T1, α2A-adrenoceptor (Homo sapiens, UniProt P08913); experiment: α2A-adrenoceptor intrinsic activity, agonist mode (Tango bla reporter assay); type: cell-based; conditions: read-out: α2A Ago Emax, receptor activation relative to the full agonist control
T1 sequence (P08913 1-465): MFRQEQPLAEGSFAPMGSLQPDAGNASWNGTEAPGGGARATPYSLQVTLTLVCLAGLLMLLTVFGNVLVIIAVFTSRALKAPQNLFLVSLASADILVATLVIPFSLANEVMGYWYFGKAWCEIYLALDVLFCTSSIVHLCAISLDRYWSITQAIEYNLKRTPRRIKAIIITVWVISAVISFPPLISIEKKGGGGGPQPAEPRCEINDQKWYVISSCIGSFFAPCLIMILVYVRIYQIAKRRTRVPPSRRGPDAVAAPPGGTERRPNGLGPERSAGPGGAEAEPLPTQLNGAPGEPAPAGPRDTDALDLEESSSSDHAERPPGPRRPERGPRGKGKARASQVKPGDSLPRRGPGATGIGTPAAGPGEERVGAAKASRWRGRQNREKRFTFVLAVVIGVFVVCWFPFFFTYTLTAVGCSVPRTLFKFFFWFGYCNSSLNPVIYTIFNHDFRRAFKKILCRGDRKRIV
Method: Intrinsic α2A-adrenoceptor activity was assessed using Tango assay technology, which utilizes a mammalian-optimized beta-lactamase (bla) reporter gene in conjunction with a FRET-enabled substrate to provide reliable and sensitive detection in cells. The intrinsic activity test was conducted based on the guidelines provided by the maker of the test kit (Invitrogen, Life Technologies, Carlsbad, CA, USA). […] To perform the agonist assay, 8 μL of a 5-fold higher concentration of agonist in assay medium was added to the cells. […] The agonist and antagonist plates were then incubated in a humidified incubator at 37 °C and 5% CO2 for 5 h. After incubation, cells were loaded with 8 μL of LiveBLAzer™-FRET B/G substrate mix (CCF4-AM), covered for light protection, and incubated at room temperature for 2 h.

HEPG2 cell line [1] = type: cell-based; conditions: human, 24 h
Method: (§1) Prior to investigating the biological activity and molecular characteristics of the test compounds in vitro, a comprehensive cytotoxicity screening was performed using HepG2 and 3T3-L1 cell lines. Two complementary assays were applied: one based on the quantification of adenylate kinase release as an indicator of cell membrane damage, and another relying on resazurin reduction to assess cellular metabolic activity. These complementary assays enable sensitive and reliable detection of cytotoxic effects across diverse cell types. This preliminary assessment was carried out to ensure that subsequent functional analyses would not be confounded by nonspecific cytotoxic effects.
(§2) The damage of cell membrane was evaluated with the ToxiLight BioAssay Kit from Lonza (Visp, Switzerland). This test is very sensitive and measures cell damage by looking at the release of adenylate kinase (AK). After 24 h of treatment, 5 µL of culture supernatant was transferred to a 384-well white plate (PerkinElmer, Singapore), followed by the addition of 20 µL of Adenylate Kinase Detection Reagent (AKDR). After a 10 min incubation at room temperature, luminescence was measured using the POLARstar Omega plate reader (BMG Labtech, Ortenberg, Germany). Results were expressed as a percentage relative to a lysed control (100% cell death).

3T3L1 cell line = type: cell-based; conditions: mouse, 24 h
Method: as §1, §2

Danio rerio larvae = experiment: In vivo toxicity assay in zebrafish larvae (Casper and ABTL lines)
Method: To determine the toxicity of JP-14 to zebrafish larvae, 76 h post-fertilized (hpf) larvae ([…], ten per well) were kept in a 6-well plate and exposed to three concentrations of compound JP-14 diluted with embryonic medium (E3), whereas untreated larvae served as control (E3 alone). Each concentration was incubated in twelve wells. The mortality rate and disturbances were determined using a microscope (OPTA-TECH MN16, Warszawa, Poland) after 24 h of exposure.

HEPG2 cell line [2] = experiment: Cell viability assay (PrestoBlue, metabolic function), HepG2; type: cell-based, human; conditions: 24 h, mean
Method: as §1
Cell viability was measured using PrestoBlue reagent (Thermo Fisher Scientific, Waltham, MA, USA), following the manufacturer’s instructions. After 24 h of compound treatment, PrestoBlue reagent was added to each well at 10% of the remaining medium volume. The plate was incubated at 37 °C for 15 min, and fluorescence was measured using the POLARstar Omega plate reader (excitation 530 nm, emission 580 nm). Results were expressed as a percentage of viable cells relative to the DMSO-treated control.

[3] = target: T2, 5-HT2C serotoninergic receptor (Homo sapiens, UniProt P28335); experiment: 5-HT2C intrinsic activity, antagonist mode (AequoScreen calcium mobilization); type: cell-based; conditions: n.a. = no activity at 10–5 M
T2 sequence (P28335 33-458): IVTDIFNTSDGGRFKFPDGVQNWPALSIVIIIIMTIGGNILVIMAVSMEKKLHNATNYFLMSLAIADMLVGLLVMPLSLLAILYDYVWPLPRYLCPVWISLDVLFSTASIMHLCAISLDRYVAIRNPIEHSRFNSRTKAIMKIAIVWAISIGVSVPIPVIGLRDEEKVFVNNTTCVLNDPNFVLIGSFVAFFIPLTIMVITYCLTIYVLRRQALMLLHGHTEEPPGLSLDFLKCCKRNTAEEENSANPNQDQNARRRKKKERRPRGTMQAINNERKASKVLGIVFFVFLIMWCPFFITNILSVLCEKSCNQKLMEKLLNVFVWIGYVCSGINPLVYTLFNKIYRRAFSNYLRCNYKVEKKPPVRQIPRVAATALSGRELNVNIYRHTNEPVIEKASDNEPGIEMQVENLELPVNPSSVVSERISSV
Method: The determination of intrinsic activity will be performed in accordance with the manufacturer’s Aequoscreen methodology—Perkin Elmer.
The cell density in the 96-well format was 5000 cells per well. Cell preparation for the assay was performed according to the manufacturer’s instructions for AequoScreen (PerkinElmer, Waltham, MA, USA). […] The cells suspension was applied onto the ligands with the injectors of the POLARstar optima reader (BMG Labtech, Ortenberg, Germany). […] The concentration and dilution series having four replicates were prepared as instructed in the AequoScreen Starter Kit Manual (PerkinElmer, Waltham, MA, USA). The wells received cell injections along with either the standard agonist or the compounds being evaluated, while the POLARstar optima reader documented the emitted light over a duration of 20 s. In the antagonist evaluation, cells were administered (50 μL) into the assay plate alongside antagonist solutions (50 μL). A single concentration of agonist (oxymetazoline) was injected (50 μL, final concentration EC80) into the preincubated (15–20 min) plate with cells and antagonist, and the emitted light was recorded for 20 s.

Compound: [H]/N=C(\N)NN=Cc1c(Cl)cncc1Cl [JP-14, (E)-2-((3,5-Dichloropyridin-4-yl)Methylene)Hydrazine-1-Carboximidamide]
- Emax (α2A-adrenoceptor): ~15%
- membrane integrity, percentage relative to control (death cells) (HEPG2 cell line [1]; 0.1 μM): 6%
- membrane integrity, percentage relative to control (death cells) (HEPG2 cell line [1]; 1 μM): 6%
- membrane integrity, percentage relative to control (death cells) (HEPG2 cell line [1]; 10 μM): 6%
- membrane integrity, percentage relative to control (death cells) (HEPG2 cell line [1]; 50 μM): 10%
- membrane integrity, percentage relative to control (death cells) (HEPG2 cell line [1]; 100 μM): 8%
- membrane integrity, percentage relative to control (death cells) (3T3L1 cell line; 0.1 μM): 6%
- membrane integrity, percentage relative to control (death cells) (3T3L1 cell line; 1 μM): 6%
- membrane integrity, percentage relative to control (death cells) (3T3L1 cell line; 10 μM): 5%
- membrane integrity, percentage relative to control (death cells) (3T3L1 cell line; 50 μM): 4%
- membrane integrity, percentage relative to control (death cells) (3T3L1 cell line; 100 μM): 5%
- effect on pigmentation (Danio rerio larvae): no effect on pigmentation was observed
- concentration not causing any visible disturbances (Danio rerio larvae; Casper and AB/TL lines, zebrafish (Danio rerio), 24 h): 10000 ng/mL
- cellular metabolic function, percentage relative to control (live cells) (HEPG2 cell line [2]; Table S4, 0.1 μM): 96%
- cellular metabolic function, percentage relative to control (live cells) (HEPG2 cell line [2]; Table S4, 1 μM): 101%
- cellular metabolic function, percentage relative to control (live cells) (HEPG2 cell line [2]; Table S4, 10 μM): 95%
- cellular metabolic function, percentage relative to control (live cells) (HEPG2 cell line [2]; Table S4, 50 μM): 71%
- cellular metabolic function, percentage relative to control (live cells) (HEPG2 cell line [2]; Table S4, 100 μM): 60%
- 5-HT2C Ant EC50 [3]: did not exhibit any measurable agonistic or antagonistic activity
